Measured values from patent publication US20250152585A1, “PHARMACEUTICAL COMPOUND” (Duke Street Bio Limited, priority 2022, published 2025).
Like-named read-outs stand apart in the source and are kept apart here.

Assays:
[1] = target: T1, N-terminally FLAG-tagged PARP2 (amino acids 1-583) (Homo sapiens, UniProt Q9UGN5); assay: PARP2 probe displacement HTRF assay; type: binding; details: binned Kd
T1 construct: N-terminally FLAG-tagged PARP2 (amino acids 1-583)
Protocol: Data analysis was performed identical as for PARP1.

[2] = target: T2, full length N-terminally FLAG-tagged PARP1 (Homo sapiens, UniProt P09874); assay: PARP1 biochemical DELFIA assay (auto-PARylation); parameters: recombinant full length human N-terminally FLAG-tagged PARP1
[3] = target: T2, full length N-terminally FLAG-tagged PARP1; assay: PARP1 probe displacement HTRF assay; details: for Selectivity: PARP1 over PARP2, ratio Kd (PARP2)/Kd (PARP1); for Kd: binned Kd
[4] = binned IC50, biochemical auto-PARylation assay
[5] = read-out: PARP1 HTRF, probe displacement HTRF
[6] = binned IC50, PARP1 biochemical DELFIA assay
[7] = read-out: PARP1 HTRF, PARP1 probe displacement HTRF
[8] = PARP1 HTRF, PARP1 probe displacement HTRF

T1 sequence (Q9UGN5 whole entry, the tested form may be a part): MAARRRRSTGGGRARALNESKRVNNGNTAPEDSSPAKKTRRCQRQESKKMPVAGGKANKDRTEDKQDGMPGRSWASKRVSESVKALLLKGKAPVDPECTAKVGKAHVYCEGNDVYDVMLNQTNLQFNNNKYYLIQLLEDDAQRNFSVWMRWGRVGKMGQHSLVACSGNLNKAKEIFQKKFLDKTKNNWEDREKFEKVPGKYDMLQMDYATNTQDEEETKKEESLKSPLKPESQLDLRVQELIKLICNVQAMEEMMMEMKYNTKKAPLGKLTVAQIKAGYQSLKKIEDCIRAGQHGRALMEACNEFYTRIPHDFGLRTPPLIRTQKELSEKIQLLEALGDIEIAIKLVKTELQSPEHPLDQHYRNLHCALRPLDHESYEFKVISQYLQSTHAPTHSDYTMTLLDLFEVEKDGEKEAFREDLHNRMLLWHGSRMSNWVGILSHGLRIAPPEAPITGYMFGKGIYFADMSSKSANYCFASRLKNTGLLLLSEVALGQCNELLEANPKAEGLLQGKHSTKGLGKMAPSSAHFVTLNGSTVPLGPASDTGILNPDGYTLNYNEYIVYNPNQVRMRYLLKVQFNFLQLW
T2 sequence (P09874 whole entry): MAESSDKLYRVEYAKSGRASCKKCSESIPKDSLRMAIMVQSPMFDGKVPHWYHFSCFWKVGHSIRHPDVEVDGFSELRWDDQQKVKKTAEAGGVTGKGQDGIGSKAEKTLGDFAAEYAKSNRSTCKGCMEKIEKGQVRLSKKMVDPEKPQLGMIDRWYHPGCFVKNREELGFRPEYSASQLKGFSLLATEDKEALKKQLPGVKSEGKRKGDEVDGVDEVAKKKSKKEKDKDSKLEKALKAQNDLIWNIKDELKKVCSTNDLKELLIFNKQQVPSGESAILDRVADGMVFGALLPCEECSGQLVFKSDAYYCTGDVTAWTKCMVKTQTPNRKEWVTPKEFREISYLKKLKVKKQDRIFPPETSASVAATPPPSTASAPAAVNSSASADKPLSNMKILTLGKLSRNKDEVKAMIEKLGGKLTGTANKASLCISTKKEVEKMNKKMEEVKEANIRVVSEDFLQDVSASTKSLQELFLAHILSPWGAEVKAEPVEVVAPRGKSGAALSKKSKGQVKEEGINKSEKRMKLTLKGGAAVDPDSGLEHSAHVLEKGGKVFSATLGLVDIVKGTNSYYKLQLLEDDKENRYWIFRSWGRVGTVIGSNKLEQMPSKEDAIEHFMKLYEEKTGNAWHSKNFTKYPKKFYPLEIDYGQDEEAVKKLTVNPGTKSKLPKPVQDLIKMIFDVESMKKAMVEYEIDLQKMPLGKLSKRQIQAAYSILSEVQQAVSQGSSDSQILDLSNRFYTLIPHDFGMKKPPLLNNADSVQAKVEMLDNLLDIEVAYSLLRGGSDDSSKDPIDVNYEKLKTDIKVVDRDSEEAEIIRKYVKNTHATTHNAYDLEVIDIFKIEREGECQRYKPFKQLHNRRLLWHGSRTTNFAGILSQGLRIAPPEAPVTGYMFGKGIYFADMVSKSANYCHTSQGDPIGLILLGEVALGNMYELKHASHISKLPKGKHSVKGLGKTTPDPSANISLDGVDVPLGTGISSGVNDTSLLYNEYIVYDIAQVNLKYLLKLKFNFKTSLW

Structure (SMILES)	Kd ([1]; probe displacement HTRF)	IC50 [2, 4]	Selectivity ([3]; probe displacement HTRF)	Kd [3, 5]	Kd ([1]; PARP2 probe displacement HTRF)	IC50 [2, 6]	Kd [3, 7]	Kd [3, 8]
CC(=O)Nc1ccc(N2CCC(N3CCC(c4nc5ccccc5c(=O)[nH]4)C3)CC2)cn1 (single isomer, unassigned) [Compound 220a]	1000 to 10000 nM	100 to 1000 nM	− (− indicates a value of less than 10)	100 to 1000 nM				
CNC(=O)c1ccc(N2CCC(N3CCCC(c4ncc(C(F)(F)F)c(=O)[nH]4)C3)CC2)cn1 (single isomer, unassigned) [Compound 73b]			++ (++ indicates a value of 50 to less than 100)		> 10000 nM	10 to 100 nM	10 to 100 nM	
COCCNC(=O)c1ccc(N2CCC(N3CCCC(c4nc5ccccc5c(=O)[nH]4)C3)CC2)cn1 (single isomer, unassigned) [Compound 116b]			− (− indicates a value of less than 10)		1000 to 10000 nM	100 to 1000 nM	100 to 1000 nM	
CNC(=O)c1ccc(N2CCC(CN3CCC(c4nc5ccccc5c(=O)[nH]4)CC3)C2)cn1 (single isomer, unassigned) [Compound 50a]			+ (+ indicates a value of 10 to less than 50)		1000 to 10000 nM	10 to 100 nM	10 to 100 nM	
CNC(=O)c1ccc(OCCN2CCCC(c3nc4ccccc4c(=O)[nH]3)C2)cn1 (single isomer, unassigned) [Compound 65a]			+++ (+++ indicate a value of at least 100)		100 to 1000 nM	< 10 nM	< 10 nM	
CNC(=O)c1ccc(N2CCC(N3CCC(c4cc5c(c(=O)[nH]4)COCC5)C3)CC2)cn1 (racemic) [Compound 405rac]	100 to 1000 nM	< 10 nM	+++ (+++ indicate a value of at least 100)	< 10 nM				
CNC(=O)c1ccc(N2CCC(N3CCC(c4cc5cccc(F)c5c(=O)[nH]4)C3)CC2)cc1F (single isomer, unassigned) [Compound 281a]	10 to 100 nM	< 10 nM	+ (+ indicates a value of 10 to less than 50)	< 10 nM				
CNC(=O)c1ccc(N2CCC(N3CCC(c4nc5ccc(C(F)(F)F)cc5c(=O)[nH]4)C3)CC2)cn1 (single isomer, unassigned) [Compound 161a]			− (− indicates a value of less than 10)		> 10000 nM	100 to 1000 nM	100 to 1000 nM	
CNC(=O)c1ccc(N2CCC(N3CCCC(c4nc5ccccc5c(=O)[nH]4)C3)CC2)cn1 (single isomer, unassigned) [Compound 6a, N-methyl-5-(3-(4-oxo-3,4-dihydroquinazolin-2-yl)-[1,4′-bipiperidin]-1′-yl)picolinamide]			+++ (+++ indicate a value of at least 100)		> 10000 nM	< 10 nM		< 10 nM
Cc1cnc(-c2ccc(N3CCC(N4CCC(c5nc6ccccc6c(=O)[nH]5)C4)CC3)cn2)n1C (racemic) [Compound 321rac]	100 to 1000 nM	100 to 1000 nM	− (− indicates a value of less than 10)	100 to 1000 nM				
CCc1ccc(C2CCN(C3CCN(c4ccc(C#N)cc4)CC3)C2)[nH]c1=O (single isomer, unassigned) [Compound 317a]	1000 to 10000 nM	10 to 100 nM	− (− indicates a value of less than 10)	100 to 1000 nM				
CNC(=O)c1ccc(N2CCC(N3CCC(c4cc5ccc(F)cc5c(=O)[nH]4)C3)CC2)cc1F (single isomer, unassigned) [Compound 270b]	10 to 100 nM	< 10 nM	+ (+ indicates a value of 10 to less than 50)	< 10 nM				
CNC(=O)c1ccc(N2CCC(N3CCC(c4cc5ncc(F)cc5c(=O)[nH]4)C3)CC2)c(F)n1 (single isomer, unassigned) [Compound 324a]	> 10000 nM	< 10 nM	+++ (+++ indicate a value of at least 100)	< 10 nM				
CCc1ccc(C2CCN(C3CCN(c4cnc(C(=O)NC)cc4F)CC3)C2)[nH]c1=O (racemic) [Compound 257rac]	1000 to 10000 nM	< 10 nM	+++ (+++ indicate a value of at least 100)	< 10 nM				
CNC(=O)c1ccc(N2CCC(N3CCCC(c4nc5onc(C(F)(F)F)c5c(=O)[nH]4)C3)CC2)cn1 (racemic) [Compound 191rac]			+ (+ indicates a value of 10 to less than 50)		> 10000 nM	100 to 1000 nM	100 to 1000 nM	
CC(=O)Nc1ccc(N2CCC(N3CCC(c4cc5ccccc5c(=O)[nH]4)C3)CC2)cn1 (single isomer, unassigned) [Compound 306a]	1000 to 10000 nM	100 to 1000 nM	+ (+ indicates a value of 10 to less than 50)	100 to 1000 nM				
CNC(=O)c1ccc(N2CCC(N3CCC(c4nc5ccc(Cl)cc5c(=O)[nH]4)C3)CC2)cn1 (single isomer, unassigned) [Compound 68b]			+ (+ indicates a value of 10 to less than 50)		100 to 1000 nM	10 to 100 nM	< 10 nM	
O=C(NC1CC1)c1ccc(N2CCC(N3CCC(c4cc5cccc(F)c5c(=O)[nH]4)C3)CC2)c(F)n1 (single isomer, unassigned) [Compound 349a]	> 10000 nM	< 10 nM	+++ (+++ indicate a value of at least 100)	< 10 nM				
CNC(=O)c1ccc(N2CCC(N3CCCC(Cc4nc5ccccc5c(=O)[nH]4)C3)CC2)cn1 (single isomer, unassigned) [Compound 57b]			+ (+ indicates a value of 10 to less than 50)		> 10000 nM	100 to 1000 nM	100 to 1000 nM	
CNC(=O)c1cc(C(F)(F)F)c(N2CCC(N3CCC(c4cc5cccc(F)c5c(=O)[nH]4)C3)CC2)cn1 (single isomer, unassigned) [Compound 308a]	1000 to 10000 nM	100 to 1000 nM	+ (+ indicates a value of 10 to less than 50)	100 to 1000 nM				
CNC(=O)c1ccc(N2CCC(N3CC(c4cc5cccc(F)c5c(=O)[nH]4)CC3=O)CC2)cn1 (racemic) [Compound 362rac]	1000 to 10000 nM	< 10 nM	+++ (+++ indicate a value of at least 100)	< 10 nM				
CNC(=O)c1cc(C)c(N2CCC(N3CCC(c4cc5ccccc5c(=O)[nH]4)C3)CC2)c(C)n1 (single isomer, unassigned) [Compound 205b]			+ (+ indicates a value of 10 to less than 50)		1000 to 10000 nM	10 to 100 nM	10 to 100 nM	
CNC(=O)c1ccc(N2CCC(N3CCC(c4cc5cccc(F)c5c(=O)[nH]4)C3)CC2)cn1 (single isomer, unassigned) [Compound 136a, 5-{4-[3-(8-fluoro-1-oxo-2H-isoquinolin-3-yl)pyrrolidin-1-yl]piperidin-1-yl}-N-methylpyridine-2-carboxamide]			+++ (+++ indicate a value of at least 100)		100 to 1000 nM	< 10 nM		< 10 nM
CNC(=O)c1ncc(N2CCC(N3CCC(c4cc5cccc(F)c5c(=O)[nH]4)C3)CC2)c(C(F)(F)F)n1 (single isomer, unassigned) [Compound 277b]	> 10000 nM	10 to 100 nM	++ (++ indicates a value of 50 to less than 100)	10 to 100 nM				
CNC(=O)c1ccc(N2CCC(N3CCC(c4cc5ccc(F)cc5c(=O)[nH]4)C3)CC2)c(C#N)n1 (single isomer, unassigned) [Compound 396b]	100 to 1000 nM	< 10 nM	+++ (+++ indicate a value of at least 100)	< 10 nM				
CS(=O)(=O)NC(=O)c1ccc(N2CCC(N3CCC(c4cc5ccccc5c(=O)[nH]4)C3)CC2)cc1 (single isomer, unassigned) [Compound 342b]	10 to 100 nM	< 10 nM	+ (+ indicates a value of 10 to less than 50)	< 10 nM				
N#Cc1ccc(N2CCC(N3CCC(c4cc5cccc(F)c5c(=O)[nH]4)C3)CC2)cn1 (single isomer, unassigned) [Compound 316b]	100 to 1000 nM	10 to 100 nM	+ (+ indicates a value of 10 to less than 50)	10 to 100 nM				
